This note sets out measurements from patent publication US10906876B2, “Tetrahydroisoquinolines as selective NADPH oxidase 2 inhibitors” (University of Pittsburgh—Of the Commonwealth System of …, priority 2013, dated 2021).

In assay [1] the target is T1, Nox2 (Homo sapiens, UniProt P04839).
T1 construct: expressed in transfected cells
T1 sequence (P04839 2-570 limits assumed): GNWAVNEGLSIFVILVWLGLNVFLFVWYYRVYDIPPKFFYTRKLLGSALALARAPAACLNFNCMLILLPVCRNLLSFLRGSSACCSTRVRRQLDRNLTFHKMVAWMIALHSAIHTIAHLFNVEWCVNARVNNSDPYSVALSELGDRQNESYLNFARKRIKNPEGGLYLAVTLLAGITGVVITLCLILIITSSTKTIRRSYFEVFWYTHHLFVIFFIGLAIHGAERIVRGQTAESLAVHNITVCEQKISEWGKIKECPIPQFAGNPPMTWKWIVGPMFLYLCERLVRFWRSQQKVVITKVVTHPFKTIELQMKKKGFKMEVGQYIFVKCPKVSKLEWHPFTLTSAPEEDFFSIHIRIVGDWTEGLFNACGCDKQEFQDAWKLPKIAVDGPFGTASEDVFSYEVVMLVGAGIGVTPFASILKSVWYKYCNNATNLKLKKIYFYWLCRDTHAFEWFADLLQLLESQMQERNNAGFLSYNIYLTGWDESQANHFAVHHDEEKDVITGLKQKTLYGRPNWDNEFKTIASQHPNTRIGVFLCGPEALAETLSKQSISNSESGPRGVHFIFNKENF
The experiment in a line: ROS (H2O2) generation in whole COS-Nox2 cells, Amplex Red assay. The assay is classed as cell-based. From the text: (§1) All cell culture reagents were obtained from Invitrogen, unless indicated. COS-22 (COS-7 cells stably expressing human p22^phox) and COS-Nox2 (a.k.a. COS-phox) cells (COS-7 cells stably expressing human p22^phox, Nox2, p47^phox and p67^phox) were kindly provided by Dr. Mary C. Dinauer (Indiana University, School of Medicine) (Price et al., Blood, 2002, 99:2653-2661). COS-22 cells were maintained in Dulbecco's Modified Eagle Medium (DMEM) with 4.5 g/L glucose, L-glutamine and sodium pyruvate containing 10% heat-inactivated fetal bovine serum (FBS), 100 units/ml penicillin and 100 μg/ml streptomycin (complete media) supplemented with 1.8 mg/ml G418 (Calbiochem/EMB Bioscience, Gibbstown, N.J.). COS-Nox2 cells were maintained in complete media supplemented with 1.8 mg/mL G418, 1 μg/mL puromycin (Sigma, St Louis, Mo.) and 0.2 mg/mL hygromycin B (Invitrogen, Carlsbad, Calif.). HEK-Nox5 cells were kindly provided by Dr. David Fulton (Georgia Health Sciences University) and maintained in complete media.
H2O2 production was quantified in intact COS-Nox4 cells by Amplex® Red. Briefly, COS-Nox4 cells (5×10^4 cells/ml) were re-plated into 384-well plate in assay buffer (25 mM Hepes, pH 7.4, containing 0.12 M NaCl, 3 mM KCl, 1 mM MgCl2). The cells were incubated in the presence or absence of drugs at 37° C. in assay buffer supplemented with 0.1 mM Amplex® Red, and 0.32 U/ml of horse radish peroxidase (HRP) for 15 min. Fluorescence measurements were made using a Biotek Synergy 4 Hybrid Multi-Mode Microplate Reader with a 530/25-excitation and a 590/35-emission filter. The reaction was monitored at 37° C. for 1 h. A standard curve of known H2O2 concentrations was included on each plate. Nox4 activity was obtained by calculating the rate of H2O2 production as RFU/min and then subtracting the equivalent value given by non-transfected COS-22 cells. Similarly, H2O2 production by Nox2 cells was also measured by Amplex® Red as described above but in the presence of 150 U/mL of SOD and the reaction was initiated by addition of 5 μM PMA. The rate of H2O2 production in this case was calculated as RFU/min after the subtraction of the equivalent value given by non-stimulated cells. Data are expressed as % of vehicle control.
(§2) All data are expressed as means±SEM. IC50 values were determined using the GraphPad Prism software (GraphPad Software, San Diego, Calif.) for non-linear regression three-parameters, with constrain values of 100 and 0 for top and bottom, respectively, and assumes a Hill slope of 1.

The target in assay [2] is T1, Nox2. The experiment in a line: ROS (superoxide) generation in whole COS-Nox2 cells, L-012 chemiluminescence. The assay is classed as cell-based. To be noted: whole COS-Nox2 cells stimulated with 5 μM PMA.
Excerpt: as §1
COS-Nox2, COS-Nox1/NOXO1/NOXA1, HEK-Nox5 and COS-22 cells were re-plated in OPTIMEM into 384-well white micro-plates (Greiner-Bio One GmbH, Germany) at a density of 2.5×10^3 cells/well for COS-Nox2 and 5×10^4 cells/well for all others. The cells were incubated at 37° C. in PBS containing […] L-012 for 10 min. Reaction was initiated by addition of 5 μM PMA in the case of Nox2 or 1 μM PMA/0.1 μM Ionomycin in the case of Nox5. Since Nox1 was constitutively active, Nox1-derived O2^•− was assessed by comparison to non-transfected cells (Cos22). Luminescence was quantified over time using a Biotek Synergy 4 Hybrid Multi-Mode Microplate Reader. The specificity of L-012 for O2^•− was confirmed by the addition of SOD (150 U/mL).
as §2
Heterologous Nox1, 2, 4, and 5 cell systems were used as a testing paradigm to identify a probe molecule that inhibits Nox2 selectively over Nox1, 4, and 5. An acceptable probe would also show a lack of activity against XO, which also produces ROS. The latter screen would serve two purposes: (1) to eliminate drugs that inhibit an oxidase of distinct composition; and (2) to preclude agents that directly scavenge ROS. A cell-based primary assay using stable Nox2-transfected COS cells (Price et al., Blood 2002, 99:2653-2661) with L-012 chemiluminescence (Daiber et al., Free Radic. Biol. Med. 2004, 36:101-111) was used as a detection system for O2^•−-generation.

The target of assay [3] is T2, Bovine milk XO (Bos taurus, UniProt P80457).
T2 construct: Bovine milk XO (grade 1, ammonium sulfate suspension; Sigma-Aldrich); purchased Sigma-Aldrich; host or cells: bovine milk
Kind of assay: Xanthine oxidase assay (Amplex Red). The assay is classed as biochemical. To be noted: compounds at 25 μM and 50 μM (FIG. 4). Here is the method: Bovine milk XO (grade 1, ammonium sulfate suspension; Sigma-Aldrich) was first desalted using PD-10 columns (Sephadex G-25, GE Healthcare Biosciences, Piscataway, N.J.) equilibrated in PBS. XO activity was assayed by measuring H2O2 production using the Amplex® Red assay. Reaction mixture contained: 0.02 U/mL XO, 25 mM Hepes, pH 7.4, containing 0.12 M NaCl, 3 mM KCl, 1 mM MgCl2, 0.1 mM Amplex® Red, and 0.32 U/mL of horse radish peroxidase (HRP), reaction was initiated by addition of 1 mM hypoxanthine. Fluorescence was quantified over time using a Biotek Synergy 4 Hybrid Multi-Mode Microplate Reader.
Data are expressed as % of vehicle control.

T2 sequence (P80457 whole entry): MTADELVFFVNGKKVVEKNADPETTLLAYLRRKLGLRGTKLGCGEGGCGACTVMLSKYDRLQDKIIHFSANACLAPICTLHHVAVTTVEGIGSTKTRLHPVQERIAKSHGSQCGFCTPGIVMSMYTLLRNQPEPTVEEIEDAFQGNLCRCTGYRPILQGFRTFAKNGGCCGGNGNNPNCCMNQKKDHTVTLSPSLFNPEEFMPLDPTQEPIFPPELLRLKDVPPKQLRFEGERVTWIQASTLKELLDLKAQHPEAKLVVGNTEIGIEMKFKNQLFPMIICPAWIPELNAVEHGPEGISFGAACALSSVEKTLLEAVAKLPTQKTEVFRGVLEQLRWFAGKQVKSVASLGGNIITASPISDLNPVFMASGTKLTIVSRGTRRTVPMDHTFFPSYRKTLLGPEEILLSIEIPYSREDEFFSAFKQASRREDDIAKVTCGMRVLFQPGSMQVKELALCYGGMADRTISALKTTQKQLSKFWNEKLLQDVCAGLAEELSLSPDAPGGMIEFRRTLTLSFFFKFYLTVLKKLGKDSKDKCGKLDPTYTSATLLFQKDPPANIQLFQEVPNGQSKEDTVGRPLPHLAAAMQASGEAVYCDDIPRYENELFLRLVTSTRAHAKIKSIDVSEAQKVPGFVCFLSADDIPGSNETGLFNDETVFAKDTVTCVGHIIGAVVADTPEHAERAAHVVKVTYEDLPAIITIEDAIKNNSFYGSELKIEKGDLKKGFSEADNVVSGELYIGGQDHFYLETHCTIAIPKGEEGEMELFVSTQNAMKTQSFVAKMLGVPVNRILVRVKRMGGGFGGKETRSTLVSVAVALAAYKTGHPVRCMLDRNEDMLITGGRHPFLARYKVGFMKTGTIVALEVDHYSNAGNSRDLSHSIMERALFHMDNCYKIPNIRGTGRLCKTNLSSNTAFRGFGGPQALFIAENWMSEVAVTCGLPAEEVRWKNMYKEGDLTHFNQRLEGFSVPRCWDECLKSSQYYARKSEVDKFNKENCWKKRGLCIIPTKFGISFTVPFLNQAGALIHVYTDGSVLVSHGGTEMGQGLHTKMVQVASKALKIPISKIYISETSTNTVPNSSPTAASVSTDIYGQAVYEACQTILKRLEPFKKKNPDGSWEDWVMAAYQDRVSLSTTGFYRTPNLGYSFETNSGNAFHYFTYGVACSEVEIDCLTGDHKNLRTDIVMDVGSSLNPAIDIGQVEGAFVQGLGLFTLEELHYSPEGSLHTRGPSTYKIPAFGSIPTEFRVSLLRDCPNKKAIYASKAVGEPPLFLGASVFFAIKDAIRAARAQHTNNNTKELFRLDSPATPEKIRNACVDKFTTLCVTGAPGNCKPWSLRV

What is called IC50 is the point on the concentration scale where inhibition reaches its midpoint. Consider `C=C(C)CC1NC2CC(C)(C)C1c1c(-c3cccnc3)cccc12` (racemic) [Compound 12d, (±)-(1S,4R,9S)-3,3-Dimethyl-9-(2-methylallyl)-5-(pyridin-3-yl)-1,2,3,4-tetrahydro-1,4-(epimino-methano)naphthalene], for which the “Nox2 inhibitory activity” value in assay [1] (Table 2) was “inactive”. Further, the concentration for half-maximal inhibition (IC50) in assay [1] (whole COS-Nox2 cells stimulated with 5 μM PMA, Amplex Red) was over 100 µM; in assay [2], over 100 µM.
For the compound `c1ccc2c(c1)[I+]c1ccccc1-2` [DPI, reference compound], in assay [3], the “Effect on ROS production by xanthine oxidase” value is “complete inhibition”.
